Series [1] has as its system HIV (Human Immunodeficiency Virus). The experiment in a line: Inhibition of HIV cytopathic effect in MT-4 cells (microscopic observation). The format is cell-based. The protocol:
About 50,000 cells/ml of MT-4 cell was introduced into a tray having 24 holes. Further, 100 ul of a solution containing a predetermined quantity of oxcetanocin was added, and then it was cultured in a 5% (v/v) carbon dioxide gas incubator at 37° C. for 2 hours. Subsequently, 10^3 to 1.0^4 infective units of HIV were added and cultured for 5 days. Then, the inhibition of cytopathic effect was observed microscopically.

The test system is the same in series [2]. The experiment in a line: Development of virus antigen in HIV-infected MT-4 cells (fluorescent antibody technique). The class given is cell-based.
A further series deals with mice. The experiment in a line: Toxicity after 1 intraperitoneal administration in mice. The class given is in vivo. To be noted: 1 administration of 800 mg/kg.
A short description of series [3]: Toxicity, general statement including repetitive administration. The format is in vivo.
Another series relates to MT-4 cell. As to the kind of experiment: Cytotoxic effect on MT-4 cell without virus. The class given is cell-based. To be noted: at concentration of 30 ug/ml. The protocol: About 50,000 cells/ml of MT-4 cell was introduced into a tray having 24 holes. Further, 100 ul of a solution containing a predetermined quantity of oxcetanocin was added, and then it was cultured in a 5% (v/v) carbon dioxide gas incubator at 37° C. for 2 hours. Subsequently, 10^3 to 1.0^4 infective units of HIV were added and cultured for 5 days. Then, the inhibition of cytopathic effect was observed microscopically. Cytotoxic effect of oxcetanocin on MT-4 cell was examined without adding virus according to the above technique.

On to `Nc1ncnc2c1ncn2C1OC(CO)C1CO` (centres unmarked) [Oxcetanocin, oxcetanocin], for which the “Inhibition of cytopathic effect (in words)” value in series [1] is reported as “predominantly inhibitory to cytopathic effect”. Moreover, in series [2], the “Development of virus antigens (in words)” value is given as “very suppressive to development of virus antigens”. Besides, the Toxic sign result with mice was “Any toxic sign has not been observed”. The Toxicity result in series [3] is “slightly toxic”. For the same compound, the “Cytotoxicity (in words)” value with MT-4 cell is recorded as “not cytotoxic”.

The values are drawn from patent US4892876A, “Method for inhibiting HIV and an pharmaceutical composition therefor” (Nippon Kayaku Kabushiki Kaisha, priority 1987, dated 1990).
